Here are results for three compounds from patent US20090270490A1, “METHODS INVOLVING ALDOSE REDUCTASE INHIBITION” (THE BOARD OF REGENTS OF THE UNIVERSITY OF TEXAS SYSTEM, priority 2008, published 2009).

Experiment [1] concerns NF-κB DNA binding. Put plainly: Electrophoretic mobility shift assay (EMSA) of NF-κB in HLEC. The experiment is classed as cell-based, human. Particulars: inhibitor 20 μM, no b-FGF. The method, then: Adenovirus SV-40 viral DNA-transformed human lens epithelial cells (HLE-B3; HLEC) were purchased from ATCC. Cells were maintained in DMEM supplemented with 20% heat-inactivated FBS, and 50 μg/ml gentamicin. The cells were grown in a humidified incubator at 37° C. and 5% CO2. The HLEC were pretreated with 20 μM of AR inhibitors sorbinil or zopolrestat for overnight in medium containing 0.5% FBS followed by stimulation with various concentrations (0-100 ng/mL) of b-FGF for 24 h and cell viability and expression of α-SMA, β-crystallin and ICAM-1 was quantified. To investigate the effect of b-FGF on NF-κB and MAPK activation, HLEC were starved in medium containing 0.5% FBS with or without AR inhibitors for overnight. The cells were washed with serum-free medium followed by incubation in serum-free medium without or with AR inhibitor containing 50 ng/mL b-FGF for different time intervals.
The HLEC in 150 cm^2 culture flasks were pretreated without or with AR inhibitors for 24 h in serum-free medium, followed by treatment with b-FGF (50 ng/ml) for 1 h at 37° C. The nuclear extracts were prepared as described earlier (Ramana et al., 2003). The Consensus oligonucleotides for NF-κB transcription factors were 5′-end labeled using T4 polynucleotide kinase. EMSA was performed as described earlier (Ramana et al., 2003.). […]

The test system of experiment [2] is lens epithelial cells in pig eye capsular bags. The experiment in a line: Lens epithelial cell growth in pig eye capsular bags (trypan blue cell counting). The experiment is classed as cell-based. The following applies: 7 days culture. The method, then: (§1) Pig eye capsular bags were prepared by phacoemulsification followed by capsulorhexis and incubated in Dulbecco's Modified Eagle's Medium (DMEM) supplemented with 10% FBS and 1% penicillin and streptomycin without or with AR inhibitors, sorbinil (50 μM) and fidarestat (10-30 μM) for 7 days in 5% CO2 condition at 37° C. Medium was replaced with fresh medium without or with AR inhibitors every day. At the end of incubation, capsular bags were examined under the dissection microscope, cut into four pieces and flat mounted on glass slide with cellular side facing up. The pieces of capsular bags were fixed with 4% paraformaldehyde for 3-4 h at 4° C. After fixation, they were washed, transferred to 70% alcohol and stored at 4° C. until used for immunohistochemical analysis.
The pig eye capsular bags were incubated for 7 days as described above. The lens epithelial cells were detached from capsular bags by incubating with 0.25% trypsin-EDTA solution. The trypsinized cells were harvested, washed with PBS and re-suspended in PBS. To determine cell growth, equal volumes of cell suspension and trypan blue were mixed and the cells which excluded trypan blue dye were counted manually by using a hemocytometer.
Phacoemulsification technique for cataract surgery in humans was used to operate enucleated pig eyes. After removing the lens, a capsular tension ring was inserted in the capsular bag. The capsular bag was then cultured in complete growth-medium without or with AR inhibitors. […] After 7 days in culture, the ring was removed and the cells were harvested by trypsinization. The harvested cells were counted using trypan blue exclusion principle.

Experiment [3] relates to α-SMA, β-crystallin and ICAM-1 expression. The experiment in a line: Immunohistochemical analysis of flat-mounted pig eye capsular bags. The experiment is classed as cell-based. Particulars: 7 days of culture; sorbinil 50 μM, fidarestat 30 μM. The method, then: as §1
The capsular bag specimens flat mounted on slides were washed thrice with PBS and incubated with blocking solution containing 2% BSA, 0.1% Triton-X100, 5% normal goat serum for 1 h at room temperature. Subsequently specimens were washed, incubated with antibodies against α-SMA, β-crystallin, PCNA, and ICAM-1 for 1 h at room temperature. The slides were stained with either LSAB-HRP system (Dako, Carpinteria, Calif.) or incubated with respective FITC labeled secondary antibodies. The samples were examined by using Nikon epifluoroscence microscope (EPI-800 microscope) connected to a computer with Metamorph software.

Regarding `O=C(O)Cc1nn(Cc2nc3cc(C(F)(F)F)ccc3s2)c(=O)c2ccccc12` [zopolrestat], the “basal activity of NF-κB with inhibitor alone” value in experiment [1] was “did not affect”.

Regarding `NC(=O)[C@@H]1C[C@]2(NC(=O)NC2=O)c2cc(F)ccc2O1` [fidarestat, (2S,4S)-2-aminoformyl-6-fluoro-spiro[chroman-4,4′-imidazolidine]-2′,5′-dione], in experiment [2] (doses 10-30 μM tested), the “most effective dose at which LEC growth was significantly (p<0.001) inhibited” value turned out to be 30 µM. Also, in experiment [2] (fidarestat 10-30 μM), the “inhibiting the growth of LEC in pig eye capsular bags” value was “dose-dependent response”.

Compound `O=C1NC(=O)[C@@]2(CCOc3ccc(F)cc32)N1` [sorbinil, (S)-6-fluoro-2,3-dihydrospiro[4H-1-benzopyran-4,4′-imidazolidine]-2′,5′-dione] returned an inhibition at 50 µM in experiment [2] (Sus scrofa, Epithelial cell, 168 h, sorbinil 50 μM, pig eye capsular bags, vs control) of about 74%. Besides, the “expression of α-SMA and β-crystallin in capsular bags (immunohistochemistry)” value in experiment [3] is “only few cells expressed α-SMA and β-crystallin”. Also, in experiment [1], the “basal activity of NF-κB with inhibitor alone” value was “did not affect”.
